From US20250205265A1, “ASPERULOSIDE AS AN AGENT FOR IMPROVING VASCULAR AND METABOLIC FUNCTION IN OBESITY: ROLE OF NRF2 ACTIVATION” (The Chinese University of Hong Kong, priority 2023, published 2025)
“Also recorded” adds a separate entry of the source. Like-named read-outs stand apart in the source and are kept apart here.

How the values were obtained:
[1] = system: high-fat diet (HFD)-fed mice; assay: Vascular function by wire myograph, aortas of obese mice; assay type: in vivo; details: ASP 50 mg/kg oral gavage daily for seven weeks
Protocol: (§1) After induction of obesity in C57BL/6 male mice fed with high fat diet for twelve weeks, they were treated daily with ASP (50 mg/kg) via oral gavage for seven weeks in vivo study. C57BL/6 mice aortae were used for ex vivo study and endothelial cells were used for in vitro study. Vascular function was determined by wire myograph. DHE and MitoSOX staining were used to detect ROS levels. QPCR, aortic en-face immunofluorescence staining, and Western blotting were used to analyze mRNA and protein expressions. Small interfering (si)RNA of Nrf2 and HO-1, inhibitors of Nrf2 (ML385, Cat. No.: HY-100523) and HO-1 (OB-24, HY-118487) were used to elucidate the mechanistic pathway of ASP's action.
(§2) After induction of obesity in C57BL/6 male mice fed with the high-fat diet for twelve weeks, they were treated daily with ASP (50 mg/kg) via oral gavage for seven weeks in vivo study. C57BL/6 mice aortae were used for ex vivo studies. Endothelial cells, HepG2 and primary adipocytes were used for in vitro studies. Vascular function was determined by wire myograph. H&E staining was employed for histological examination. Oil Red O staining was used to determine lipid droplets in tissues and cells. DHE and MitoSOX staining were used to detect ROS levels. […] ARE binding activity was determined by Dual luciferase reporter assay. […]

[2] = system: ROS; assay: DHE staining of ROS in obese mice aortic sections; assay type: in vivo; details: ASP 50 mg/kg oral gavage daily for seven weeks
Protocol: as §1, §2

[3] = system: VCAM-1; assay: Real-time PCR of VCAM-1 in aortas of obese mice; assay type: in vivo
Protocol: as §1, §2

[4] = system: ICAM-1; assay: Real-time PCR of ICAM-1 in aortas of obese mice; assay type: in vivo
Protocol: as §1, §2

[5] = system: Nrf2; assay: Real-time PCR of Nrf2 in obese mice aortas; assay type: in vivo
Protocol: as §1, §2

[6] = system: HO-1; assay: Real-time PCR of HO-1 in obese mice aortas; assay type: in vivo
Protocol: as §1, §2

[7] = system: C57BL/6 mice aortae; assay: Ex vivo wire myograph, IL-1β-impaired EDRs in mouse aortas; details: for EDRs: IL-1β
Protocol: as §1
(§3) After induction of obesity in C57BL/6 male mice fed with the high-fat diet for twelve weeks, they were treated daily with ASP (50 mg/kg) via oral gavage for seven weeks in vivo study. C57BL/6 mice aortae were used for ex vivo studies. Endothelial cells, HepG2 and primary adipocytes were used for in vitro studies. Vascular function was determined by wire myograph. H&E staining was employed for histological examination. Oil Red O staining was used to determine lipid droplets in tissues and cells. DHE and MitoSOX staining were used to detect ROS levels. QPCR, aortic en-face immunofluorescence staining, and Western blotting were used to analyze mRNA and protein expressions. ARE binding activity was determined by Dual luciferase reporter assay. Small interfering (si)RNA of Nrf2 and HO-1, inhibitors of Nrf2 (ML385, Cat. No.: HY-100523) and HO-1 (OB-24, HY-118487) were used to elucidate the mechanistic pathway of ASP's action.

[8] = system: HO-1; assay: Aortic en-face immunofluorescence staining of HO-1; parameters: species or system mice
Protocol: as §1, §3

[9] = system: endothelial cells; assay: ROS level in endothelial cells; assay type: cell-based
Protocol: as §1, §2

[10] = system: HO-1; assay: HO-1 expression in endothelial cells (western blotting, real-time PCR); assay type: cell-based
Protocol: as §1, §3

[11] = system: Nrf2/antioxidant responsive element (ARE); assay: ARE binding activity, luciferase reporter assay in endothelial cells; assay type: cell-based; details: for endothelial Nrf2/ARE binding, higher than the binding to impaired endothelial cells: worded as embodiment, cf. FIG. 3D
Protocol: as §3

[12] = system: lipid droplets in obese mice livers; assay: H&E and Oil Red O staining of obese mice livers; assay type: in vivo; details: ASP 50 mg/kg oral gavage daily for seven weeks
Protocol: as §3

[13] = system: HepG2 cells; assay: Oil Red O staining of PA-treated HepG2 cells; assay type: cell-based; details: Nrf2-inhibited HepG2 cells
Protocol: as §3

[14] = system: FAS, ACC2, SREBP1C, HSL; assay: Real-time PCR of lipid metabolism genes in PA-treated HepG2 cells; assay type: cell-based
Protocol: as §3

[15] = system: obese mice livers; assay: ATP levels in obese mice livers; assay type: in vivo
Protocol: as §3

[16] = system: Cpt1α, Cpt1β, mitochondrial complex, Pgc1α; assay: Real-time PCR of mitochondrial genes in obese mice livers; assay type: in vivo
Protocol: as §3

[17] = system: HepG2 cells; assay: ATP production in PA-treated HepG2 cells; assay type: cell-based
Protocol: as §3

[18] = system: SDHC; assay: Real-time PCR of SDHC in PA-treated HepG2 cells; assay type: cell-based; details: PA-treated HepG2 cells when Nrf2 is inhibited
Protocol: as §3

[19] = system: obese mice livers; assay: DHE staining of obese mice livers; assay type: in vivo
Protocol: as §3

[20] = system: HepG2 cells; assay: DHE staining of palmitic acid-treated HepG2 cells; assay type: cell-based; details: Nrf2-inhibited HepG2 cells
Protocol: as §3

[21] = system: Nrf2; assay: Nrf2 nuclear translocation and protein level in obese mice livers; assay type: in vivo
Protocol: as §3

[22] = system: Nrf2/ARE; assay: Dual-luciferase assay of ARE binding in PA-treated HepG2 cells; assay type: cell-based
Protocol: as §3

[23] = system: HO-1, SIRT1, SIRT6, and SOD2; assay: Real-time PCR of Nrf2 downstream genes in PA-treated HepG2 cells; assay type: cell-based
Protocol: as §3

[24] = system: perirenal adipose tissues; assay: Weight and sizes of perirenal adipose tissues in obese mice; assay type: in vivo
Protocol: as §3

[25] = system: primary adipocytes; assay: Real-time PCR in primary adipocytes; assay type: cell-based, mice
Protocol: Primary adipocytes were treated with ASP overnight. […] Data represent means±SEM of 4 mice. P values were determined using One-way ANOVA. *p<0.05.
Primary adipocytes were treated with 40 μmol/L ASP (FIG. 22A) or different doses of ASP (FIG. 22B) for 24 hours. […] Scale bar, 50 μm (FIG. 22B). Data represent means±SEM of 4 experiments. P values were determined using One-way ANOVA. *p<0.05.
as §3

[26] = aortas of obese mice, real-time PCR
[27] = obese mice aortae, ASP 50 mg/kg oral gavage daily for seven weeks
[28] = obese mice aortas, real-time PCR
[29] = endothelial cells under basal conditions
[30] = 250 μmol/L PA-treated HepG2 cells for 16 hours

Asperuloside
acetylcholine-induced endothelium-dependent relaxations (EDRs) [1]: prevents HFD-induced impairment of EDRs; also recorded: significantly reversed the impairments of endothelium-dependent relaxations; also recorded: significantly improved endothelial-dependent relaxations
endothelium-independent relaxations in response to sodium nitroprusside (SNP) [1]: remain similar among different groups
ROS generation / oxidative stress (DHE staining) [2]: suppresses elevated ROS generation; also recorded: suppressed oxidative stress
VCAM-1 mRNA expression [3, 26]: decreases elevated expression of VCAM-1 and ICAM-1 mRNA
reduction of VCAM-1 expression [3, 27]: about 2 fold
ICAM-1 mRNA expression [4, 26]: decreases elevated expression of VCAM-1 and ICAM-1 mRNA
reduction of ICAM-1 expression [4, 27]: about 2 fold
increase of Nrf2 expression [5, 27]: about 1.5 fold
Nrf2 mRNA expression level [5, 28]: increases mRNA expression level of Nrf2
increase of HO-1 expression [6, 27]: about 1.5 fold
HO-1 mRNA expression level [6, 28]: increases mRNA expression level of Nrf2 (FIG. 1G) and HO-1
EDRs ([7]; ML385-treated aortas): fails to reverse impairment
EDRs ([7]; endothelial-cell specific Nrf2 knockdown murine aortas): fails to reverse the impairment
acetylcholine-induced EDRs ([7]; IL-1β-treated aortas, ex vivo): prevents IL-1-induced impairment in acetylcholine-induced EDRs; also recorded: prevents IL-1β-impaired EDRs; also recorded: rescued IL-1β-impairs EDRs
acetylcholine-induced EDRs ([7]; IL-1β-treated, HO-1-inhibited (OB-24) aortas): fails to rescue the impairment; also recorded: failed to prevent endothelial dysfunction in HO-1 inhibited aortae
HO-1 expression (en-face immunofluorescence) ([8]; EC-specific knockdown of Nrf2): EC-specific knockdown of Nrf2 abolishes the upregulation of HO-1 by ASP treatment
HO-1 expression (en-face immunofluorescence) ([8]; OB-24-treated aortas): fails to increase HO-1 expression
endothelial HO-1 expression (en-face immunofluorescence) ([8]; inhibition of Nrf2/ARE binding (ML385)): inhibition of Nrf2/ARE binding eliminates the endothelial upregulation of HO-1 by ASP treatment
ROS level ([9]; HO-1-silencing cells): fails to decrease ROS level
oxidative stress ([9]; endothelial cells): suppresses oxidative stress
HO-1 mRNA ([10]; IL-1β, ML385-treated cells): fails to restore IL-1β-mediated downregulation of HO-1 protein (FIG. 4B) and mRNA
HO-1 protein ([10]; IL-1β, ML385-treated cells): fails to restore IL-1β-mediated downregulation of HO-1 protein
HO-1 upregulation (western blotting) ([10]; Nrf2-silenced cells): ASP-induced upregulation of HO-1 is eliminated; also recorded: Nrf2 knockdown attenuated HO-1 upregulation by ASP
HO-1 expression (western blotting) [10, 29]: dose-dependently upregulated HO-1 expression
HO-1 mRNA (real-time PCR) [10, 29]: dose-dependently increases HO-1 mRNA
endothelial Nrf2/ARE binding, higher than the binding to impaired endothelial cells ([11]; 10 μm ASP): about 50%
endothelial Nrf2/ARE binding, higher than the binding to impaired endothelial cells ([11]; 20 μm ASP): ~60%
endothelial Nrf2/ARE binding, higher than the binding to impaired endothelial cells ([11]; 40 μm ASP): ~70%
ARE binding activity ([11]; luciferase reporter assay): increased ARE binding activity
accumulated lipid droplets (H&E, Oil Red O) [12]: attenuates obesity-induced accumulated lipid droplets
PA-induced lipid accumulation (Oil Red O) [13]: fails to alleviate PA-induced lipid accumulation
mRNA levels of FAS, ACC2 and SREBP1C ([14]; Nrf2-inhibited HepG2 cells): fails to decrease its expression levels
PA-stimulated overexpression of mRNA levels of FAS, ACC2 and SREBP1C ([14]; PA-treated HepG2 cells): inhibited by ASP treatment
HSL mRNA expression ([14]; palmitic acid, Nrf2-inhibited HepG2 cells): fails to restore palmitic acid-decreased HSL mRNA expression
ATP levels [15]: increases ATP levels
mRNA expressions of Cpt1α, Cpt1β, mitochondrial complex, and Pgc1α [16]: reverses these impairments
production of ATP [17]: restores the decreased production of ATP
production of ATP ([17]; inhibition of Nrf2): inhibition of Nrf2 eliminates the rescue effect of ASP
mRNA expression levels of SDHC [18]: fails to upregulate the mRNA expression levels of SDHC
oxidative stress (DHE staining) [19]: suppresses oxidative stress in obese mice livers
palmitic acid-induced oxidative stress (DHE staining) [20]: fails to attenuate palmitic acid-induced oxidative stress
Nrf2 nuclear translocation (immunofluorescence) ([21]; obese mice livers): stimulates Nrf2 nuclear translocation in obese mice livers
Nrf2 protein level (western blot) ([21]; obese mice livers): increased
increase of protein level of Nrf2 in the liver ([21]; worded as embodiment, cf. FIG. 13B): about 3 fold
binding activity of ARE [22, 30]: dose-dependently increases the binding activity of ARE
increase of Nrf2/ARE binding ([22]; palmitic acid-impaired HepG2 cells, worded as embodiment, cf. FIG. 13E): about 2 fold
mRNA expression of HO-1, SIRT1, SIRT6, and SOD2 [23, 30]: dose-dependently increases mRNA expression of HO-1, SIRT1, SIRT6, and SOD2
increase of HO-1 mRNA expression ([23]; palmitic acid-impaired HepG2 cells, cf. FIG. 13F): at least 2 fold
ratio of perirenal adipose tissues to body weight ([24]; obese mice): decreased
sizes of adipocytes (H&E staining) ([24]; obese mice): remarkably reduces the sizes of adipocytes
decrease of perirenal adipose tissues in weight and sizes, average ([24]; worded as embodiment, cf. FIGS. 14A-14B): about 35%
mRNA expression levels of Nprc and Cd36 ([25]; primary adipocytes treated with ASP overnight): dose-dependently decreases mRNA expression levels of Nprc (FIG. 21A) and Cd36
mRNA expression of Nrf2 ([25]; primary adipocytes, different doses of ASP for 24 hours): dose-dependently increases mRNA expression of Nrf2
increase of Nrf2 mRNA expression ([25]; primary adipocytes, worded as embodiment, cf. FIG. 22B): at least 1.2 fold
